According to patent publication US12377164B2, “Linkers and conjugates” (ASTRAZENECA AB, priority 2018, dated 2025):
Non-standard residues stand in square brackets, D forms with d. Residues, ends and D or L forms follow the SMILES beside them. *: point of attachment. Dolaproine = CO[C@@H]([C@@H]1CCCN1)[C@@H](C)C(=O)O; Dil = CC[C@H](C)[C@H](NC)[C@@H](CC(=O)O)OC; X1 = C[C@@H](N*)[C@@H](O)c1ccccc1; NMeV = CN[C@H](C(=O)O)C(C)C

How the values were obtained:
[1] = test system: HER2-negative MCF7 and T47D cells; assay: Cell viability (CellTiter-Glo), HER2-negative cells; type: cell-based; settings: 96 h, HER2-negative cell lines, FIG. 2
Protocol: (§1) HER2-positive SKBR3 and BT474 cells were obtained from the American Type Culture Collection (ATCC) and HER2-negative MCF7 and T47D cells were obtained from the European Collection of Authenticated Cell Cultures (ECACC) and ATCC, respectively. SKBR3 cells were maintained in high glucose McCoy's 5A medium, supplemented with 10% heat-inactivated foetal-bovine serum (FBS), 50 U/mL penicillin and 50 μg/mL streptomycin. MCF7 cells were maintained in Dulbecco's Modified Eagle Medium (DMEM) supplemented with 10% heat-inactivated fetal-bovine serum (FBS), 2 mM L-glutamine, 50 U/mL penicillin and 50 μg/mL streptomycin. BT474 and T47D cell lines were maintained in RPM11640 medium supplemented with 10% heat-inactivated fetal-bovine serum (FBS), 2 mM L-glutamine, 50 U/mL penicillin and 50 μg/mL streptomycin. All cell lines were incubated at 37° C. with 5% CO2.
(§2) Cells were seeded in 96-well plates for 24 h at 37° C. with 5% CO2. SKBR3 cells were seeded at 15,000 cells/well, BT474 cells were seeded at 20,000 cells/well, MCF7 cells were seeded at 7,500 cells/well and T47D cells were seeded at 10,000 cells/well. […] Cell viability was measured using CellTiter-Glo viability assay (Promega) according to the manufacturer's instructions. Cell viability was plotted as a percentage of untreated cells.

[2] = test system: HER2-positive SKBR3 and BT474 cells; assay: Cell viability (CellTiter-Glo), HER2-positive cells; type: cell-based; settings: 96 h, HER2-positive cell lines, FIG. 2
Protocol: as §1, §2

[3] = Stability of model cysteine conjugates incubated with excess reduced L-glutathione (GSH), tracked via 1H NMR; type: physicochemical; settings: 3 equivalents GSH, pH 7.4 buffer, 37° C., after two weeks
Protocol: The stability of conjugate 3 under physiological conditions was investigated by incubation with excess (3 equivalents) reduced L-glutathione (GSH) in pH 7.4 buffer (40% CD-3OD/NaPi—50 mM) at 37° C. The stability was tracked via ^1H NMR and almost no degradation (<5%) was observed after two weeks.

trastuzumab Fab = assay: Trastuzumab Fab conjugation kinetic experiment (LC-MS); settings: 10 and 20 equivalents of linker, after 15 minutes, 37° C.
Protocol: The mixtures were vortexed and incubated at 37° C. for 1 h. A solution of 8 (10 mM in DMSO) was added to each solution (final concentration equal to 10 and 20 equivalents) and the reaction mixture incubated at 37° C. At t=0, 5, 10, 15, 20, 30, 40 and 60 min, 0.5 μL was removed from each reaction, diluted with MilliQ water (9 μL) and quenched with 100 eq. of cysteine (5 mM in DMSO). LC-MS analysis was then used to quantify conversion.

## CC[C@H](C)[C@@H]([C@@H](CC(=O)N1CCC[C@H]1[C@H](OC)[C@@H](C)C(=O)N[C@H](C)[C@@H](O)c1ccccc1)OC)N(C)C(=O)[C@@H](NC(=O)[C@@H](NC)C(C)C)C(C)C [MMAE] (H-[NMeV]V[Dil][Dolaproine]-X1)
[1]
  cytotoxicity (cell viability): high levels of cytotoxicity
[2]
  cytotoxicity (cell viability): high levels of cytotoxicity

## COC(=O)[C@H](CSCCc1ccnc(N)n1)NC(=O)OC(C)(C)C [compound 3]
[3]
  degradation: < 5%

## COC(=O)[C@H](CSC1CC(=O)N(Cc2ccccc2)C1=O)NC(=O)OC(C)(C)C (stereo partly drawn) [compound 6, methyl S-(1-benzyl-2,5-dioxopyrrolidin-3-yl)-N-(tert-butoxycarbonyl)-L-cysteinate]
[3]
  conversion to the glutathione conjugate: > 50%

## C#CCCCCNc1nc(C=C)cc(C=C)n1 [compound 8, N-(hex-5-yn-1-yl)-4,6-divinylpyrimidin-2-amine]
Trastuzumab Fab
  re-bridging of the Fab chains: > 90%
